The record followed here is US20090062294A1, “HETEROARYL-SUBSTITUTED UREA MODULATORS OF FATTY ACID AMIDE HYDROLASE” (priority 2007, published 2009).

For one assay, the target named is T1, FAAH (Homo sapiens, UniProt O00519).
T1 sequence (O00519 1-579): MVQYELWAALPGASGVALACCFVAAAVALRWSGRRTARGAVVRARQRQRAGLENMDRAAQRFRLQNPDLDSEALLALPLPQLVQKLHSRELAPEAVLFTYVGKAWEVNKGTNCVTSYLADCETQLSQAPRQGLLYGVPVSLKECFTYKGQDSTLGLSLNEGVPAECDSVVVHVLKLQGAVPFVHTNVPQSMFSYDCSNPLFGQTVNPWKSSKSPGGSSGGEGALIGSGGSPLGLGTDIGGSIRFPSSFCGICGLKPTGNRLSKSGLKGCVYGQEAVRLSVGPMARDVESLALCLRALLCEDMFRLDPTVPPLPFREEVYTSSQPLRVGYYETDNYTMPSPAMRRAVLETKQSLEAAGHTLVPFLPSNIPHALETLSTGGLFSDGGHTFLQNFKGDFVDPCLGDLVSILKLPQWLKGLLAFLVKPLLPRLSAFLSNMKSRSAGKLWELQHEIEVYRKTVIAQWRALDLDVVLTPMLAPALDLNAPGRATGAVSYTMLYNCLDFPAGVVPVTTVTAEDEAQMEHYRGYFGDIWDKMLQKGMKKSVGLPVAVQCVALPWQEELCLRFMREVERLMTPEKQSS
Briefly: Assay Method 1: FAAH assay, 3H-anandamide hydrolysis in homogenate of T84 cells or SK-N-MC cells transfected with human FAAH. The settings on record: average of results, > = solubility limit or highest concentration tested. It is filed as biochemical. The essentials:
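Homogenates of T84 cells or of SK-N-MC cells stably transfected with human FAAH (G418-selected) were prepared in pH 9 Tris/EDTA/glycerol/Triton buffer. They were incubated with compound and 80 nM final ^3H-anandamide for 1 h at rt. Released ^3H-ethanolamine was separated on activated charcoal and counted by scintillation.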

Assay [1] has as its system mechanical (tactile) allodynia in the left hind paw. Briefly: Assay Method 3: Rat Mild Thermal Injury Model (MTI), mechanical allodynia. It is filed as in vivo, Sprague-Dawley rats. The settings on record: 10 mg/Kg p.o.; 0.5 h after administration; mean +/- S.E.M. From the text:
Assay Method 3—Rat Mild Thermal Injury Model (MTI)
Pathogen-free, male albino Sprague-Dawley rats were purchased from Harlan Industries (San Diego, Calif.) and maintained on a 12-h light/dark cycle (lights on at 9:00 AM and off at 9:00 PM) in a climate-controlled room. Food and water were available ad libitum up to the time of the testing.
Under isoflurane/oxygen anesthesia, a first-degree burn injury (erythema without blistering) was produced as follows: the plantar surface of the rat's left hind paw was placed on water-dampened 56° C. hotplate for 20 seconds and steady contact was maintained by applying an 84 g weight to the dorsum (after Nozaki-Taguchi & Yaksh, Neurosci. Lett. 1998, 254, 25-28).
Mild thermal injury results in mechanical allodynia in the left hind paw. Mechanical (tactile) allodynia was assessed by determining the median threshold at which the affected paw was withdrawn from graded stimuli (von Frey filaments ranging from 0.41 to 15.8 g) applied perpendicularly with sufficient force to bend slightly and held for 2-3 seconds against the proximal half of the third and fourth toe surfaces through wire-mesh observation cages. Paw flinching during or immediately following the removal of the stimulus was considered a positive response. A paw withdrawal threshold (PWT) was determined by sequentially increasing and decreasing the stimulus strength and analyzing withdrawal data using an adaptation of the Dixon up-down method, as described (Chaplan et al., J. Neurosci. 1994, 53, 55-63). Rats were included in the study only if their baseline PWT was 3.1623 g or lower (4.5 logarithmically).
Rats were tested for pre-injury thresholds prior to mild thermal injury and again for baseline thresholds after development of mechanical allodynia. Immediately after baseline measurement, test compound or vehicle was administered orally and the measurement was repeated at 0.5 h after administration. The tactile thresholds (log value) were converted to percent of a maximum possible effect ( %MPE): % MPE=[Threshold(t)−Threshold(baseline)]*100/[Threshold(pre)−Threshold(baseline)], where t=post-treatment time. Data were expressed as mean±standard error of the mean (S.E.M.). Statistical analysis was performed using two-way ANOVA with repeated measures with a significance level of p<0.05.
Results for compounds tested in this assay are presented in Table 2, as an average of results obtained. Compounds were tested in free base, hydrochloride salt, and/or trifluoroacetic acid salt forms.

By IC50 is commonly meant the concentration needed to halve the response being measured. Read a low IC50 as greater potency.

With `O=C(Nc1noc2ccccc12)N1CCN(Cc2cccc(Oc3ccc(C(F)(F)F)cc3)c2)CC1` [Example 109, N-1,2-Benzisoxazol-3-yl-4-{3-[4-(trifluoromethyl)phenoxy]benzyl}-piperazine-1-carboxamide], 6 nM corresponded to half-maximal inhibition against FAAH (IC50). Moreover, in assay [1], the “% MPE” value was found to be 0%.

Consider `O=C(Nc1noc2cc(F)ccc12)N1CCN(Cc2cccc(Oc3ccc(Cl)cc3)c2)CC1` [Example 245, 4-[3-(4-Chloro-phenoxy)-benzyl]-piperazine-1-carboxylic acid (6-fluoro-benzo[d]isoxazol-3-yl)-amide], for which, on FAAH, half-maximal inhibition (IC50) was put at 19 nM. Moreover, the “% MPE” value in assay [1] is listed as 36 +/− 10%.
